Reference: the supplement of paper PMC11061612

Assays:
[1] = system: KARPAS-422 (B-Cell Non-Hodgkin's Lymphoma); assay: combination Emax (second highest fraction inhibited in the dose matrix, 72 h); higher = more inhibition; extreme values may be limits of the assay
In short: (§1)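 After 24 hours at 37°C and 5% CO2 in 1536-well plates, cells in DMEM/F12 or RPMI plus 10% FBS received two-drug dose matrices for 72 hours. Viability came from CellTiter-Glo 2.0 luminescence and was scaled as inhibition, anchored at 0 by vehicle wells and at 1 by blank wells. Combination Emax is taken as the second-highest inhibition in the matrix, and Bliss excess as the observed combination effect less EA + EB − EA·EB, with EA and EB the single-agent effects.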

[2] = system: NCI-H1666 (Lung Adenocarcinoma); assay: as above
In short: as §1

[3] = system: NCI-H64 (Small Cell Lung Carcinoma); assay: as above
In short: as §1

[4] = system: ECC10 (Gastric Carcinoma); assay: as above
In short: as §1

[5] = system: BICR22 (Oral Cavity Carcinoma); assay: as above
In short: as §1

[6] = system: NCI-H1581 (Non-Small Cell Lung Carcinoma); assay: as above
In short: as §1

IGR-37 (Melanoma) [7] = assay: as above
In short: as §1

[8] = system: ONS-76 (Other Solid Carcinomas); assay: as above
In short: as §1

[9] = system: NCI-H2066 (Squamous Cell Lung Carcinoma); assay: as above
In short: as §1

[10] = system: COLO-320-HSR (Colorectal Carcinoma); assay: as above
In short: as §1

[11] = system: VCaP (Prostate Carcinoma); assay: as above
In short: as §1

[12] = system: CCK-81 (Colorectal Carcinoma); assay: as above
In short: as §1

FU97 (Gastric Carcinoma) [13] = assay: as above
In short: as §1

U-2-OS (Osteosarcoma) [14] = assay: as above
In short: as §1

[15] = system: TT (Thyroid Gland Carcinoma); assay: as above
In short: as §1

[16] = system: PANC-10-05 (Pancreatic Carcinoma); assay: as above
In short: as §1

[17] = system: CAPAN-2 (Pancreatic Carcinoma); assay: as above
In short: as §1

NY (Osteosarcoma) [18] = assay: as above
In short: as §1

[19] = system: KARPAS-422 (B-Cell Non-Hodgkin's Lymphoma); assay: Bliss excess, mean over the matrix (fraction); higher = more synergy
In short: as §1

[20] = system: NCI-H1666 (Lung Adenocarcinoma); assay: as above
In short: as §1

[21] = system: NCI-H64 (Small Cell Lung Carcinoma); assay: as above
In short: as §1

[22] = system: ECC10 (Gastric Carcinoma); assay: as above
In short: as §1

[23] = system: BICR22 (Oral Cavity Carcinoma); assay: as above
In short: as §1

[24] = system: NCI-H1581 (Non-Small Cell Lung Carcinoma); assay: as above
In short: as §1

IGR-37 (Melanoma) [25] = assay: as above
In short: as §1

[26] = system: ONS-76 (Other Solid Carcinomas); assay: as above
In short: as §1

[27] = system: NCI-H2066 (Squamous Cell Lung Carcinoma); assay: as above
In short: as §1

[28] = system: COLO-320-HSR (Colorectal Carcinoma); assay: as above
In short: as §1

[29] = system: VCaP (Prostate Carcinoma); assay: as above
In short: as §1

[30] = system: CCK-81 (Colorectal Carcinoma); assay: as above
In short: as §1

FU97 (Gastric Carcinoma) [31] = assay: as above
In short: as §1

U-2-OS (Osteosarcoma) [32] = assay: as above
In short: as §1

[33] = system: TT (Thyroid Gland Carcinoma); assay: as above
In short: as §1

[34] = system: PANC-10-05 (Pancreatic Carcinoma); assay: as above
In short: as §1

[35] = system: CAPAN-2 (Pancreatic Carcinoma); assay: as above
In short: as §1

NY (Osteosarcoma) [36] = assay: as above
In short: as §1
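Throughout, for Bliss excess, mean over the matrix: after 72 h of two-drug dosing.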

| Structure (SMILES) | combination Emax [1] | combination Emax [2] | combination Emax [3] | combination Emax [4] | combination Emax [5] | combination Emax [6] | combination Emax (IGR-37 (Melanoma) [7]) | combination Emax [8] | combination Emax [9] | combination Emax [10] | combination Emax [11] | combination Emax [12] | combination Emax (FU97 (Gastric Carcinoma) [13]) | combination Emax (U-2-OS (Osteosarcoma) [14]) | combination Emax [15] | combination Emax [16] | combination Emax [17] | combination Emax (NY (Osteosarcoma) [18]) | Bliss excess [19] | Bliss excess [20] | Bliss excess [21] | Bliss excess [22] | Bliss excess [23] | Bliss excess [24] | Bliss excess (IGR-37 (Melanoma) [25]) | Bliss excess [26] | Bliss excess [27] | Bliss excess [28] | Bliss excess [29] | Bliss excess [30] | Bliss excess (FU97 (Gastric Carcinoma) [31]) | Bliss excess (U-2-OS (Osteosarcoma) [32]) | Bliss excess [33] | Bliss excess [34] | Bliss excess [35] | Bliss excess (NY (Osteosarcoma) [36]) |
| --- | --- | --- | --- | --- | --- | --- | --- | --- | --- | --- | --- | --- | --- | --- | --- | --- | --- | --- | --- | --- | --- | --- | --- | --- | --- | --- | --- | --- | --- | --- | --- | --- | --- | --- | --- | --- |
| C[C@@H](Oc1cc(-c2cnn(C3CCNCC3)c2)cnc1N)c1c(Cl)ccc(F)c1Cl [Crizotinib] + CC1=C(C(=CC=C1)Cl)NC(=O)C2=CN=C(S2)NC3=CC(=NC(=N3)C)N4CCN(CC4)CCO [Dasatinib] (first compound max 10 µM, 7x7, partner max 2 µM) | 0.886 | 0.807 | 0.594 | 0.679 | 0.89 | 0.359 | 0.645 | 0.894 | 0.587 | 0.699 | 0.587 | 0.892 | 0.446 | 0.617 | 0.274 | 0.813 | 0.78 | 0.519 | 0.0411 | -0.0103 | -0.0238 | -0.0263 | 0.0433 | -0.0363 | -0.0317 | 0.0996 | -0.0202 | -0.0425 | -0.0665 | 0.0191 | -0.0237 | 0.0199 | -0.0751 | 0.0003 | 0.0443 | 0.0882 |
| C[C@@H](Oc1cc(-c2cnn(C3CCNCC3)c2)cnc1N)c1c(Cl)ccc(F)c1Cl [Crizotinib] + Cn1cnc2c(F)c(Nc3ccc(Br)cc3Cl)c(C(=O)NOCCO)cc21 [Selumetinib] (first compound max 10 µM, 7x7, partner max 10 µM) | 0.723 | 0.503 | 0.56 | 0.858 | 0.281 | 0.519 | 0.922 | 0.65 | 0.513 | 0.614 | 0.652 | 0.794 | 0.319 | 0.831 | 0.479 | 0.643 | 0.639 | 0.279 | -0.063 | -0.0892 | -0.012 | -0.0116 | -0.0493 | 0.0228 | 0.0066 | -0.0482 | -0.0245 | -0.0696 | -0.0622 | -0.0256 | -0.0414 | 0.0015 | 0.0207 | 0.006 | 0.0244 | -0.0158 |
| CS(=O)(=O)CCNCc1ccc(-c2ccc3ncnc(Nc4ccc(OCc5cccc(F)c5)c(Cl)c4)c3c2)o1 [Lapatinib] + Cn1cnc2c(F)c(Nc3ccc(Br)cc3Cl)c(C(=O)NOCCO)cc21 [Selumetinib] (first compound max 10 µM, 7x7, partner max 10 µM) | 0.562 | 0.839 | 0.14 | 0.951 | 0.924 | 0.395 | 0.856 | 0.748 | 0.338 | 0.264 | 0.182 | 0.944 | 0.906 | 0.647 | 0.305 | 0.556 | 0.424 | 0.329 | 0.0289 | 0.064 | -0.0224 | -0.0082 | 0.128 | 0.031 | -0.0934 | -0.0123 | -0.0156 | 0.0181 | -0.0677 | -0.0522 | -0.0116 | -0.0563 | -0.0416 | 0.0247 | 0.0147 | 0.0033 |
| O=C(c1cc(Cc2n[nH]c(=O)c3ccccc23)ccc1F)N1CCN(C(=O)C2CC2)CC1 [Olaparib] + CC1(C)CCC(CN2CCN(c3ccc(C(=O)NS(=O)(=O)c4ccc(NCC5CCOCC5)c([N+](=O)[O-])c4)c(Oc4cnc5[nH]ccc5c4)c3)CC2)=C(c2ccc(Cl)cc2)C1 [Venetoclax] (first compound max 10 µM, 7x7, partner max 1 µM) | 0.611 | 0.104 | 0.166 | 0.706 | 0.0823 | 0.234 | 0.3 | 0.17 | 0.136 | 0.176 | 0.101 | 0.148 | 0.104 | 0.109 | 0.208 | 0.125 | 0.0502 | 0.188 | 0.0071 | -0.0661 | 0.0167 | 0.0155 | -0.0428 | -0.0035 | 0.0143 | -0.014 | -0.0521 | 0.0038 | -0.0434 | -0.0382 | -0.0322 | -0.0331 | -0.0158 | -0.059 | -0.0398 | 0.0029 |
| O=C(c1cc(Cc2n[nH]c(=O)c3ccccc23)ccc1F)N1CCN(C(=O)C2CC2)CC1 [Olaparib] + CN(CC[C@H](CSC1=CC=CC=C1)NC2=C(C=C(C=C2)S(=O)(=O)NC(=O)C3=CC=C(C=C3)N4CCC(CC4)[C@H](C5=CC=CC=C5C6=CC=C(C=C6)Cl)O)S(=O)(=O)C(F)(F)F)CCO [AZD4320] (first compound max 10 µM, 7x7, partner max 1 µM) | 0.925 | 0.124 | 0.95 | 1 | 0.255 | 0.3 | 0.275 | 0.181 | 0.351 | 0.19 | 0.128 | 0.124 | 0.212 | 0.202 | 0.538 | 0.164 | 0.462 | 0.195 | -0.0348 | -0.0702 | -0.0325 | 0.0135 | 0.0041 | 0.0118 | 0.0028 | -0.0216 | -0.097 | 0.016 | -0.0444 | -0.0283 | -0.0426 | -0.0213 | 0.0271 | -0.0548 | -0.0461 | 0.0263 |
| O=C(c1cc(Cc2n[nH]c(=O)c3ccccc23)ccc1F)N1CCN(C(=O)C2CC2)CC1 [Olaparib] + COc1nnc2ccc(N3CCC(c4ccc(OCCN5CCN(C)C(=O)[C@H]5C)cc4)CC3)nn12 [AZD5153] (first compound max 10 µM, 7x7, partner max 1 µM) | 0.66 | 0.409 | 0.239 | 0.786 | 0.0626 | 0.506 | 0.58 | 0.474 | 0.286 | 0.373 | 0.707 | 0.756 | 0.762 | 0.285 | 0.48 | 0.401 | 0.186 | 0.473 | -0.0132 | -0.0544 | -0.0338 | -0.0196 | -0.0477 | 0.0078 | -0.0984 | -0.0463 | -0.0865 | -0.0311 | -0.082 | -0.0643 | -0.0372 | -0.0312 | -0.0615 | -0.0072 | -0.0267 | -0.0877 |
| O=C(c1cc(Cc2n[nH]c(=O)c3ccccc23)ccc1F)N1CCN(C(=O)C2CC2)CC1 [Olaparib] + Cc1c2c(nn1C)CSCc1cc(n(C)n1)CSc1cc(c3ccccc3c1)OCCCc1c(C(=O)O)n(C)c3c-2c(Cl)ccc13 [AZD5991] (first compound max 10 µM, 7x7, partner max 1 µM) | 0.967 | 0.111 | 0.148 | 0.738 | 0.108 | 0.972 | 0.151 | 0.17 | 0.2 | 0.836 | 0.958 | 0.785 | 0.207 | 0.0686 | 0.168 | 0.159 | 0.044 | 0.426 | -0.0071 | -0.0669 | 0.0017 | 0.0111 | -0.0317 | 0.0183 | -0.0419 | -0.038 | -0.0539 | -0.0304 | -0.0247 | -0.0311 | -0.0169 | -0.0394 | -0.0273 | -0.0739 | -0.0426 | -0.0239 |
| N#Cc1cnc(Nc2cc(NC[C@H]3CNCCO3)c(C(F)(F)F)cn2)cn1 [SRA737] + C=CCn1c(=O)c2cnc(Nc3ccc(N4CCN(C)CC4)cc3)nc2n1-c1cccc(C(C)(C)O)n1 [AZD1775] (first compound max 10 µM, partner max 1 µM) | 0.817 | 0.253 | 0.865 | 0.823 | 0.836 | 0.67 | 0.789 | 0.824 | 0.426 | 0.706 | 0.66 | 0.916 | 0.366 | 0.877 | 0.352 | 0.42 | 0.306 | 0.673 | 0.0952 | -0.0345 | 0.0534 | 0.0773 | 0.177 | 0.0425 | 0.0182 | 0.11 | 0.0147 | 0.116 | 0.0327 | 0.0173 | 0.0097 | 0.0962 | 0.0428 | -0.101 | -0.0431 | 0.0355 |
